The target in this assay is T1, recombinant human MMP-13 (Homo sapiens, UniProt P45452).
T1 construct: made in house; host or cells: baculovirus (pBlueBac4 / Bac-N-Blue; virus made in Sf9), expressed in High-Five insect cells; culture supernatant used
Briefly: Assay of MMP-13 inhibiting activity (fluorogenic peptide substrate). It counts as biochemical. The settings on record: Table 3; 37° C., 2 hours. From the text:
Based on the sequence described in the literature by Freije, J. M. et al (Journal of Biological Chemistry, 269: 16766-16773, 1994) and using a PCR method known per se, a human MMP-13 cDNA was obtained.
A pBlueBac4 (Invitrogen) and a Baculovirus vector Bac-N-Blue (Invitrogen) to each of which the human MMP-13 cDNA obtained above was integrated were co-transfected to an Sf9 cell to obtain a MMP-13-expressing recombinant virus.
The recombinant virus thus obtained was infected to a High-Five cell (Invitrogen), and the culture supernatant after three days was employed as an enzyme solution. Experiment 2 Assay of MMP-13 inhibiting activity
75 μl of a sample containing the recombinant human MMP-13, 200 mM sodium chloride, 20 mM calcium chloride, 0.1% Brij 35, 1 mM 2-mercaptoethanol, 200 mM tris-HCl buffer solution (pH7.5) and a test substance at various concentrations was treated with 25 μl of 40 μM MOCAc-Pro-Leu-Gly-Leu-A2pr(DNP)-Ala-Arg-NH2 (PEPTIDE KENKYUSHO) to initiate a reaction and kept at 37° C. for 2 hours, and then 100 μl of 500 mM sodium acetate-HCl buffer solution (pH3.0) was added to terminate the reaction.
The level of liberated MOCAc-Pro-Leu-Gly was determined using a fluorophotometer (MTP-32/F2: CORONA DENKI) at the excitation wavelength of 330 nm and the fluorescent wavelength of 405 nm. The fluorescent level of the reaction in the absence of a test substance was regarded as 100%, and the concentration of each test substance required for achieving 50% inhibition was indicated as IC50.
As to `CN(C)C(=O)S[C@@H]1CC(=O)N(Cc2ccc(Oc3ccccc3)cc2)C1` [Example 62, S-[(3R)-5-oxo-1-(4-phenoxybenzyl)pyrrolidinyl]dimethylcarbamothioate], the IC50 came to 3000 nM.
As for `O=C1C[C@@H](SC(=O)N2CCOCC2)CN1Cc1ccc(Oc2ccccc2)cc1` [Example 63, S-[(3R)-5-oxo-1-(4-phenoxybenzyl)pyrrolidinyl]4-morpholinecarbothioate], the IC50 worked out at 2000 nM.
`CCC(=O)S[C@@H]1CC(=O)N(Cc2ccc(Oc3ccccc3)cc2)C1` [Example 64, S-[(3R)-5-oxo-1-(4-phenoxybenzyl)pyrrolidinyl]propanethioate]: the IC50 was 3.2 nM.
In the case of `CCCC(=O)S[C@@H]1CC(=O)N(Cc2ccc(Oc3ccccc3)cc2)C1` [Example 65, S-[(3R)-5-oxo-1-(4-phenoxybenzyl)pyrrolidinyl]butanethioate] it was 1.3 nM.
For `CCCCC(=O)SC1CC(=O)N(Cc2ccc(Oc3ccccc3)cc2)C1` (stereo not drawn) [Example 66, S-[5-oxo-1-(4-phenoxybenzyl)-3-pyrrolidinyl]pentanethioate], the IC50 is 1 nM.
For the molecule `CC(C)C(=O)S[C@@H]1CC(=O)N(Cc2ccc(Oc3ccccc3)cc2)C1` [Example 67, S-[(3R)-5-oxo-1-(4-phenoxybenzyl)pyrrolidinyl]2-methylpropanethioate], the IC50 worked out at 11 nM.
In the case of `O=C(Cc1ccccc1)SC1CC(=O)N(Cc2ccc(Oc3ccccc3)cc2)C1` (stereo not drawn) [Example 68, S-[5-oxo-1-(4-phenoxybenzyl)-3-pyrrolidinyl]2-phenylethanethioate] it was 2 nM.
With `O=C(Cc1ccc(Cl)cc1)SC1CC(=O)N(Cc2ccc(Oc3ccccc3)cc2)C1` (stereo not drawn) [Example 69, S-[5-oxo-1-(4-phenoxybenzyl)-3-pyrrolidinyl]-(4-chlorophenyl)ethanethioate], the IC50 is 20 nM.
As for `O=C(SC1CC(=O)N(Cc2ccc(Oc3ccccc3)cc2)C1)C(c1ccccc1)c1ccccc1` (stereo not drawn) [Example 70, S-[5-oxo-1-(4-phenoxybenzyl)-3-pyrrolidinyl] 2,2-diphenylethanethioate], the IC50 worked out at 2 nM.
With `CCOC(=O)CC(=O)S[C@@H]1CC(=O)N(Cc2ccc(Oc3ccccc3)cc2)C1` [Example 71, Ethyl 3-oxo-3-{[(3R)-5-oxo-1-(4-phenoxybenzyl)pyrrolidinyl]sulfanyl}propanoate], the IC50 was 0.89 nM.
On to `CC(C)(C)OC(=O)CC(=O)S[C@@H]1CC(=O)N(Cc2ccc(Oc3ccccc3)cc2)C1` [Example 72, t-Butyl 3-oxo-3-{[(3R)-5-oxo-1-(4-phenoxybenzyl)pyrrolidinyl]sulfanyl}propanoate], for which the IC50 was 2.4 nM.
Turning to `O=C(O)CC(=O)S[C@@H]1CC(=O)N(Cc2ccc(Oc3ccccc3)cc2)C1` [Example 73, 3-Oxo-3-{[(3R)-5-oxo-1-(4-phenoxybenzyl)pyrrolidinyl]sulfanyl}propanoic acid], the IC50 was determined as 11 nM.
Take `CCOC(=O)CCC(=O)S[C@@H]1CC(=O)N(Cc2ccc(Oc3ccccc3)cc2)C1` [Example 74, Ethyl 4-oxo-4-{[(3R)-5-oxo-1-(4-phenoxybenzyl)pyrrolidinyl]sulfanyl}butanoate]: the IC50 came out at 5.4 nM.
On to `O=C(O)CCC(=O)S[C@@H]1CC(=O)N(Cc2ccc(Oc3ccccc3)cc2)C1` [Example 75, 4-Oxo-4-{[(3R)-5-oxo-1-(4-phenoxybenzyl)pyrrolidinyl]sulfanyl}butanoic acid], for which the IC50 worked out at 8 nM.
In the case of `CNC(=S)S[C@@H]1CC(=O)N(Cc2ccc(Oc3ccccc3)cc2)C1` [Example 76] it was 1.2 nM; in that of `CCNC(=S)S[C@@H]1CC(=O)N(Cc2ccc(Oc3ccccc3)cc2)C1` [Example 77], 1.6 nM; in that of `COC(=O)SS[C@@H]1CC(=O)N(Cc2ccc(Oc3ccccc3)cc2)C1` [Example 78, (4R)-4-[(Methoxycarbonyl)disulfanyl]-2-oxo-1-(4-phenoxybenzyl)pyrrolidine], greater than 10000 nM.
Take `CCSS[C@@H]1CC(=O)N(Cc2ccc(Oc3ccccc3)cc2)C1` [Example 79, (4R)-4-(Ethyldisulfanyl)-1-(4-phenoxybenzyl)-2-pyrrolidinone]: the IC50 was found to be 100 nM.
Consider `CCCCCCSS[C@@H]1CC(=O)N(Cc2ccc(Oc3ccccc3)cc2)C1` [Example 80, (4R)-4-(Hexyldisulfanyl)-1-(4-phenoxybenzyl)-2-pyrrolidinone], for which the IC50 stood at 1000 nM.
Take `CC(C)(C)SS[C@@H]1CC(=O)N(Cc2ccc(Oc3ccccc3)cc2)C1` [Example 81, (4R)-4-(t-Butyldisulfanyl)-1-(4-phenoxybenzyl)-2-pyrrolidinone]: the IC50 amounted to 1000 nM.
Turning to `CCOC(=O)CSS[C@@H]1CC(=O)N(Cc2ccc(Oc3ccccc3)cc2)C1` [Example 82], the IC50 stood at 50 nM.
As for `O=C(O)CSS[C@@H]1CC(=O)N(Cc2ccc(Oc3ccccc3)cc2)C1` [Example 83], the figure is 400 nM.
Regarding `O=C(O)CCSS[C@@H]1CC(=O)N(Cc2ccc(Oc3ccccc3)cc2)C1` [Example 85], the IC50 amounted to 460 nM.
On to `O=C(O)c1ccccc1SS[C@@H]1CC(=O)N(Cc2ccc(Oc3ccccc3)cc2)C1` [Example 86], for which the IC50 stood at 500 nM.
As for `O=C1C[C@@H](SSc2ccccc2[N+](=O)[O-])CN1Cc1ccc(Oc2ccccc2)cc1` [Example 87, (4R)-4-[(2-Nitrophenyl)disulfanyl)-1-(4-phenoxybenzyl)-2-pyrrolidinone], the IC50 amounted to 600 nM.
Turning to `C/C(=C(\CCO)SS[C@@H]1CC(=O)N(Cc2ccc(Oc3ccccc3)cc2)C1)N(C=O)Cc1cnc(C)nc1N` [Example 88, (4-Amino-2-methyl-5-pyrimidinyl)methyl((Z)-4-hydroxy-1-methyl-2-{[(3R)-5-oxo-1-(4-phenoxybenzyl)pyrrolidinyl]disulfanyl}-1-butenyl)formamide], the IC50 was determined as 670 nM.
For the molecule `CS[C@@H]1CC(=O)N(Cc2ccc(Oc3ccccc3)cc2)C1` [Example 89, (4R)-4-(Methylsulfanyl)-1-(4-phenoxybenzyl)-2-pyrrolidinone], the IC50 was 700 nM.
Regarding `O=C1C[C@@H](SCCO)CN1Cc1ccc(Oc2ccccc2)cc1` [Example 90, (4R)-4-[(2-Hydroxyethyl)sulfanyl)-1-(4-phenoxybenzyl)-2-pyrrolidinone], the IC50 was 5000 nM.
Take `O=C(O)CS[C@@H]1CC(=O)N(Cc2ccc(Oc3ccccc3)cc2)C1` [Example 91, 2-{[(3R)-5-Oxo-1-(4-phenoxybenzyl)pyrrolidinyl]sulfanyl}acetic acid]: the IC50 worked out at 1000 nM.
With `CCOC(=O)CCS[C@@H]1CC(=O)N(Cc2ccc(Oc3ccccc3)cc2)C1` [Example 92, Ethyl 3-{[(3R)-5-oxo-1-(4-phenoxybenzyl)pyrrolidinyl]sulfanyl}propanoate], the IC50 came to 2000 nM.
In the case of `O=C(O)CCS[C@@H]1CC(=O)N(Cc2ccc(Oc3ccccc3)cc2)C1` [Example 93, 3-{[(3R)-5-Oxo-1-(4-phenoxybenzyl)pyrrolidinyl]sulfanyl}propanoic acid] it was 6000 nM.
On to `O=C1CC(SCc2ccc(Br)cc2)CN1Cc1ccc(Oc2ccccc2)cc1` (stereo not drawn) [Example 94, 4-[(4-Bromobenzyl)sulfanyl)-1-(4-phenoxybenzyl)-2-pyrrolidinone], for which the IC50 was determined as 300 nM.
Regarding `COC(=O)c1ccc(CS[C@@H]2CC(=O)N(Cc3ccc(Oc4ccccc4)cc3)C2)cc1` [Example 95, Methyl 4-({[(3R)-5-oxo-1-(4-phenoxybenzyl)pyrrolidinyl]sulfanyl}methyl)benzoate], the IC50 turned out to be 400 nM.
In the case of `O=C(O)c1ccc(CS[C@@H]2CC(=O)N(Cc3ccc(Oc4ccccc4)cc3)C2)cc1` [Example 96, 4-({[(3R)-5-oxo-1-(4-phenoxybenzyl)pyrrolidinyl]sulfanyl}methyl)benzoic acid], the IC50 worked out at 700 nM.
For `O=C1CC(SCCS(=O)(=O)c2ccccc2)CN1Cc1ccc(Oc2ccccc2)cc1` (stereo not drawn) [Example 97, 1-(4-phenoxybenzyl)-4-{[2-(phenylsulfonyl)ethyl]sulfanyl}-2-pyrrolidinone], the IC50 was 2000 nM.
As for `COCS[C@@H]1CC(=O)N(Cc2ccc(Oc3ccccc3)cc2)C1` [Example 98, (4R)-4-[(Methoxymethyl)sulfanyl]-1-(4-phenoxybenzyl)-2-pyrrolidinone], the figure is 200 nM; as for `O=C1OC(S[C@@H]2CC(=O)N(Cc3ccc(Oc4ccccc4)cc3)C2)c2ccccc21` (stereo partly drawn) [Example 99, (4R)-4-[(3-Oxo-1,3-dihydro-2-benzofuran-1-yl)sulfanyl]-1-(4-phenoxybenzyl)-2-pyrrolidinone], 7 nM.
As for `CC(=O)NCS[C@@H]1CC(=O)N(Cc2ccc(Oc3ccccc3)cc2)C1` [Example 100, N-({[(3R)-5-Oxo-1-(4-phenoxybenzyl)pyrrolidinyl]sulfanyl}methyl)acetamide], the IC50 is 2000 nM.
As for `CC(C)(C)C(=O)NCS[C@@H]1CC(=O)N(Cc2ccc(Oc3ccccc3)cc2)C1` [Example 101, 2,2-Dimethyl-N-({[(3R)-5-oxo-1-(4-phenoxybenzyl)pyrrolidinyl]sulfanyl}methyl)propanamide], the IC50 is 3000 nM.
